# Key:
# LNCaP 104-S cells = assay: Proliferation of LNCaP 104-S cells in culture; type: cell-based, human; details: 0.1 nM R1881 vs androgen-depleted media
# Method: Androgen-dependent LNCaP 104-S (passage 37) and androgen-independent LNCaP 104-R±sublines were isolated as described previously (Kokontis et al., 1994). The characteristics of these cells in vitro were confirmed before injection into nude mice. […] LNCaP 104-R2 cells grew in charcoal-treated media without additional androgen. Their proliferation was not stimulated but was repressed by 0.1 nM R1881. LNCaP 104-S cells were maintained in DMEM (Gibco) supplemented with 1 nM 5α-DHT and 10% FBS (Summit Biotechnology) and LNCaP 104-R2 cells were maintained in DMEM supplemented with 10% FBS treated with charcoal to remove steroid (Kokontis et al., 1994). PC-3 and MCF-7 cell lines were obtained from the American Type Culture Collection (Rockville, Md.), and were maintained in DMEM supplemented with 10% FBS.
# LNCaP 104-R2 tumors [1] = assay: Growth of LNCaP 104-R2 tumors in castrated male nude mice; type: in vivo, BALB/c athymic (nude) mice
# LNCaP 104-S tumors = assay: Growth of LNCaP 104-S tumors in nude mice; type: in vivo, BALB/c athymic (nude) mice; details: TP implanted at the time of castration; from 299±27 (SE) mm^3; ±SE
# PC-3 tumors = assay: Growth of PC-3 tumors in nude mice; type: in vivo, BALB/c athymic (nude) mice
# MCF-7 tumors = assay: Growth of MCF-7 tumors in female nude mice; type: in vivo, BALB/c athymic (nude) mice
# [2] = Biological effects of TP implants in nude mice (serum testosterone, seminal vesicle weight, body weight); type: in vivo, BALB/c athymic (nude) mice; details: 4th week after androgen implantation
# From the text: (§1) BALB/c athymic (nude) male (LNCaP, PC-3 cell lines) and female (MCF-7 cell line) mice (Taconic Inc., Germantown, N.Y.), 5 to 7 weeks-old, were used. Mice were housed in a pathogen-free environment, four to five mice per cage. Cages (filter top), bedding and water were autoclaved before use. Feed was irradiated Pico Lab Mouse Chow 20 5058 (Purina). All procedures involving animals were approved by the University of Chicago Institutional Animal Care and Use Committee. For the tumor growth studies, 10^6 cells in 0.25 ml of culture medium were mixed with 0.25 ml of Matrigel™ (Collaborative Research, Bedford, Mass.) and were injected subcutaneously into one or both flanks of the mice as described previously (Liao et al., 1995). Tumor size was measured weekly and tumor volume was calculated using the formula L×W×H×0.52 (Janek and Hartman, 1975). Bilateral orchiectomy and subcutaneous implantation or removal of pellets were performed under Metofane anesthesia. Blood samples were obtained by heart puncture or from the orbital plexus while mice were under anesthesia and analyzed for testosterone levels by radioimmunoassay or PSA levels by dual-site reactive enzymatic immunoassay (Tandem®-E PSA, Hybritech, San Diego, Calif.). […] All numerical data are expressed as the average of the values obtained from 4 to 6 tumors and the standard error. […]
# LNCaP 104-R2 tumors [3] = assay: Expression of AR, c-myc and PSA by LNCaP 104-R2 tumors (ribonuclease protection assay, serum PSA immunoassay); type: in vivo, BALB/c athymic (nude) mice; details: after 1 week of TP treatment
# From the text: as §1
Compound,increase of proliferation of LNCaP 104-S cells (LNCaP 104-S cells),"LNCaP 104-R2 tumor size within 4 weeks after removal of TP (LNCaP 104-R2 tumors [1]; TP implanted at 4th week, removed at 7th week, regrew from 96±26 (SE) mm^3) [mm^3]","LNCaP 104-R2 tumor size four weeks after TP implantation (LNCaP 104-R2 tumors [1]; TP implanted at 7th week, from 884±64 (SE) mm^3) [mm^3]",LNCaP 104-S tumor size 4 weeks after castration with TP implant (LNCaP 104-S tumors) [mm^3],effect on growth of AR negative PC-3 tumors (PC-3 tumors),effect on growth of MCF-7 tumors (MCF-7 tumors),body weight of nude mice [2],increase of seminal vesicle weight ([2]; vs castrates without TP),increase of serum PSA (LNCaP 104-R2 tumors [3]),increase of the level of PSA mRNA in tumor samples (LNCaP 104-R2 tumors [3])
"C[C@]1(O)CC[C@H]2[C@@H]3CCC4=CC(=O)CCC4=C3C=C[C@@]21C [R1881, 17 β-hydroxy-17 α-methyl-estra-4,9,11-trien-3-one]",10-13 fold,–,–,–,–,–,–,–,–,–
"CCC(=O)O[C@H]1CC[C@H]2[C@@H]3CCC4=CC(=O)CC[C@]4(C)[C@H]3CC[C@]12C [TP, testosterone propionate]",–,641±157,208±33,965±166,did not affect,not affected,no loss,about 10 times,more than 10 fold,more than 10 fold
